Values quoted from earlier work, collected in US6727058B2, “Intergrase assay” (priority 1998, dated 2004).

Biological target: lacR (Escherichia coli, UniProt P03023)
Details: association constant; Barkley & Bourgeios 1980

lacR, sequence (P03023 whole entry): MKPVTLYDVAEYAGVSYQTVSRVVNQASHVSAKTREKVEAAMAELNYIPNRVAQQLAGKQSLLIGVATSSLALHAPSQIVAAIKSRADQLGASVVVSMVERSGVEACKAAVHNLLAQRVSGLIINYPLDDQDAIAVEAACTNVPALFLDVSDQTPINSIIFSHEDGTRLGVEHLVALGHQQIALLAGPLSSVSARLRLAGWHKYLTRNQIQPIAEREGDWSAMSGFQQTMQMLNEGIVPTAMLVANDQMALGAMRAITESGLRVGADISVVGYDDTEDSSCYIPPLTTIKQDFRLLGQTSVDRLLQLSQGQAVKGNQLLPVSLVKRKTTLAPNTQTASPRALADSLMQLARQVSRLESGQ

CC(C)S[C@@H]1O[C@H](CO)[C@H](O)[C@H](O)[C@H]1O [IPTG]
ka of lacR complexing IPTG: ≈ 10^6 M^−1
